{"source": "paper PMC11586411", "about": "(Translational Psychiatry, 2023)", "molecular_target": "T1, kappa-opioid receptor (KOP) (Homo sapiens, UniProt P41145)", "T1 construct": "gene OPRK1", "T1 sequence (P41145 whole entry)": "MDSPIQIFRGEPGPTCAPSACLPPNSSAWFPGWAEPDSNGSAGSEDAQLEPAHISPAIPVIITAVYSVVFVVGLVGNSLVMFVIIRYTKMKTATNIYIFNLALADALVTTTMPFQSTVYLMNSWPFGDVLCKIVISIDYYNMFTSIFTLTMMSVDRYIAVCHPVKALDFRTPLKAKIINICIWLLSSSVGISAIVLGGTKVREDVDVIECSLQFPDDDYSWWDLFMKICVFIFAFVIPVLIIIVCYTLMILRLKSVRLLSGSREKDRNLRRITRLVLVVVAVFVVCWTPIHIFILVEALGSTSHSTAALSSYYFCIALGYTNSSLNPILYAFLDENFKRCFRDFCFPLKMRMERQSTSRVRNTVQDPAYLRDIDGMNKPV", "experiment": "FLIM in live cells: blocks the dynorphin A-induced change of KOP-eGFP lifetime", "type": "cell-based", "data": [{"smiles": "CC(C)[C@@H](CN1CC[C@@](C)(c2cccc(O)c2)[C@@H](C)C1)NC(=O)[C@H]1Cc2ccc(O)cc2CN1", "note": "[JDTic]", "values": [{"measurement": "FLIM in live cells: blocks the dynorphin A-induced change of KOP-eGFP lifetime", "result": "both NTX and the KOP-selective antagonist JDTic blocked this effect, suggesting that DynA binds to KOP-eGFP"}]}]}
